From US20100247564A1, “METHODS AND COMPOSITIONS FOR THE USE OF SARGASSUM FUSIFORME FOR THE INHIBITION OF HIV-1 INFECTION” (priority 2007, published 2010) come the findings set out here.

A word on the inhibition: it is the relative decrease from the control value, in per cent.

The structures appear in SMILES notation. Like-named read-outs stand apart in the source and are kept apart here.

For one series, the system named is BlaM-Vpr-X4-tropic NL4-3. Nature of the series: microbe, parasite or virus in culture. The format is cell-based, HIV-1.
In series [1] the target is T1, sCD4 (Homo sapiens, UniProt P01730).
T1 construct: soluble CD4 (sCD4) protein; purchased Progenics Pharmaceuticals
As to the kind of experiment: Saturation transfer difference NMR (STD-NMR) binding to sCD4. The note with it: NMR buffer with 20% d6-DMSO, room temperature. As for the experimental part:
FIGS. 15A-E show in vitro binding experiments of sCD4 with PA. FIG. 15A is a homonuclear NMR spectrum of 100 μM PA in the NMR buffer (10 mM KPO4 buffer, pH 7.0, 20% d6-DMSO, and 80% D2O). […] Tryptophan fluorescence was measured using an excitation wavelength of 280 nm. An increase of PA causes a red shift of 2 nm and quenching of the tryptophan fluorescence of sCD4.
We used a one-dimensional saturation transfer difference NMR (STD-NMR) experiment to characterize the binding of PA to sCD4 in vitro. […]
To perform the STD-NMR experiment, we used commercially available sCD4 (200 μg, 4.4 nmol, Progenics Pharmaceuticals), which was exchanged into the NMR buffer (160 μl of D2O and 40 μl d6-DMSO, containing 10 mM KPO4 buffer, pH 7.0). […] The NMR data were processed and analyzed using Topspin 2.0 (Bruker).
During the STD-NMR experiment, we titrated increasing concentrations of PA into sCD4 solution, and observed PA binding to sCD4, as shown by an increase in the intensity of the ligand STD-NMR signal (FIGS. 15A and 15B). The intensity of the STD signal was quantified by calculating the difference between the intensity of one signal in the off-resonance NMR spectrum, or reference NMR spectrum (I0), and the intensity of a signal in the on-resonance NMR spectrum (Isat) for various concentrations of the ligand (FIG. 15C). […]

Series [2] deals with cell fusion (anti-HIV activity). As to the kind of experiment: Inhibition of cell fusion by individual fatty acids. The format is cell-based. To be noted: Human immunodeficiency virus 1, read-out: percentage of inhibition of cell fusion; for inhibition at 1 µg/mL: 1 μg/ml; for inhibition at 5 µg/mL: 5 μg/ml. As to the method:
Anti-HIV activity of the individual fatty acids was tested at four different concentrations. The values given in Table 1 represent the percentage of inhibition of cell fusion in the presence of each fatty acid.

Series [3] has as its system CXCR4 tropic HIV-1 (NL4-3). As to the kind of experiment: HIV-1 (NL4-3) replication in 1G5 T cells, luciferase expression. The format is cell-based.
The subject of series [4] is primary CCR5-tropic isolate ADA. Nature of the series: HIV-1 ADA infection of microglia, p24 ELISA. To be noted: Human immunodeficiency virus 1, Microglia, 72 h. On the technique in general: An ELISA detects its analyte on a solid surface through an enzyme-linked reagent.
Protocol: Either macrophages (A) or microglia (B) were treated for 24 hours with 1 mg/ml S. fusiforme or with 10^−6 M ddC, infected with primary CCR5-tropic isolate ADA at 0.2 pg of p24/cell for 2 hours, washed 3 times, and returned to culture. At the indicated time points after infection, HIV-1 expression was monitored by p24 production in cell-free supernatants by ELISA and the percent inhibition was calculated and plotted on the Y-axis.
Next, we treated fetal microglial cell cultures with either 1 mg/ml of S. fusiforme or 10^−6 M ddC and monitored infection kinetics by p24 production in cell-free supenatants at the indicated time points after infection (FIG. 5B).
For series [5], the system named is HIV-1 (NL4-3) cell-to-cell fusion. Nature of the series: Cell-to-cell infection and syncytia formation in co-culture (infected CEM/1G5; infected 1G5/GHOST). The note with it: only 10^−6 M ddC.
Another series deals with 1G5 T cells. Nature of the series: Viability of HIV-1 infected 1G5 T cells (MTT uptake, trypan blue exclusion). The note with it: 10^−6 M ddC. The format is cell-based. As to the method: FIGS. 2A-B show the dose response of HIV-1 inhibition and cell viability in T cells treated with S. fusiforme. […] The cells were washed 3 times and then returned to culture. On day 3 after infection, intracellular luciferase gene marker expression was measured from cell lysates adjusted to the same number of viable cells using an MTT assay (A).
FIGS. 3A-B show the time course of HIV-1 inhibition and viability in T cells. […] Cell viability was determined by trypan blue exclusion assay (B).
Next, we investigated the ability of S. fusiforme extracts to inhibit HIV-1 infection in 1G5 T cells. […] On day 3 after infection, equal numbers of viable cells were analyzed for intracellular luciferase expression and cell viability was measured using an MTT uptake assay (FIG. 2). HIV-1 inhibition was calculated by comparing treated and untreated cell cultures (both infected with HIV-1). […] Treatment with ddC blocked virus replication by over 98%. In parallel, we tested for MTT uptake by viable cells, which remained high regardless of the concentration of S. fusiforme extract used in treatment (FIG. 2B).
Infection was monitored by luciferase expression at specific time points after infection (FIG. 3A). […] Treatment with 2 mg/ml of S. fusiforme inhibited infection by 77, 99, and 99% on days 3, 5, and 7, respectively (FIG. 3A). Inhibition by ddC was 99% at each time point tested. […]

The target in a further series is T2, recombinant HIV-1 RT (Human immunodeficiency virus type 1 group M subtype B, UniProt P04585).
T2 construct: recombinant HIV-1 RT; purchased Ambion
Nature of the series: Cell-free fluorescent reverse transcriptase (RT) assay. The format is biochemical. To be noted: 2-fold serial dilutions, two units recombinant HIV-1 RT.

A further series deals with ubiquitin (Homo sapiens, UniProt P0CG47). Nature of the series: Dot blot binding of 14C-labeled PA to ubiquitin. To be noted: 100 μM 14C-PA. As for the experimental part: (§1) FIGS. 14A-C show the inhibition of HIV-1 fusion and CD4 interaction upon PA treatment. […] The percent of infected cells is indicated inside each quadrant. Cells were loaded with CCF2/AM dye and fusion was analyzed by multiparameter flow cytometry using a violet laser for excitation of CCF, and gated from 10,000 cells. […] The percent inhibition was plotted on the y-axis. […] The dot-blot membrane was washed and exposed to film, which was then scanned and the dot-blot total pixel mean value (intensity*mm^2) was quantified and plotted on the y-axis.
(§2) To further test this hypothesis and reveal a possible physical interaction between PA and sCD4, we performed dot blot analysis with ^14C-labeled PA (^14C-PA) incubated together with increasing concentrations of sCD4, ubiquitin, or S100A12 proteins (FIG. 14C). PVDF membrane (BioRad) was pretreated with 100 μM PA for 1 hour at room temperature (RT). Indicated concentrations of each protein in 10 μl/well were run through the vacuum of the dot blot apparatus. The membrane was then incubated with 100 μM ^14C-labeled PA (^14C-PA) in 33% ethanol for 1 hour at room temperature, and then washed in 33% ethanol and exposed to film. Blot total pixel mean value intensity was quantified by Quantity One 4.6.1 software (BioRad).

For series [6], the target named is T1, sCD4. Nature of the series: Dot blot binding of 14C-labeled PA to sCD4. To be noted: 100 μM 14C-PA, increasing concentrations of sCD4. As to the method: as §1, §2
Another series deals with T3, S100A12 (Homo sapiens, UniProt P80511).
T3 sequence (P80511 1-92): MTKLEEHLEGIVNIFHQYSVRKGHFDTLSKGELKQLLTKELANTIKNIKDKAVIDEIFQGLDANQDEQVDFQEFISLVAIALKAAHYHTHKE
Nature of the series: Dot blot binding of 14C-labeled PA to S100A12. To be noted: 100 μM 14C-PA. As for the experimental part: as §1, §2

Where [7] appears, read: Human immunodeficiency virus 1, NL43, SUP-T1, read-out: inhibition of fusion.

In the series with BlaM-Vpr-X4-tropic NL4-3 (250 nM AMD3100, 51.5% without treatment), `c1cc(CN2CCCNCCNCCCNCC2)ccc1CN1CCCNCCNCCCNCC1` [AMD3100, reference compound] came in with a fusion positive cells of 28.7%. For the same compound, the virus-positive cells in the series with BlaM-Vpr-X4-tropic NL4-3 (AMD3100 in the PA experiment, 37.6% untreated) worked out at 2.8%. Also, in the series with BlaM-Vpr-X4-tropic NL4-3 (setting [7]), the inhibition at 0.25 µM worked out at 44.5% and the inhibition at 0.5 µM stood at 80%.
For the compound `CCCCCCCCCCCCCC(=O)O` [Myristic acid, myristic acid], on sCD4 [1], the “STD-NMR signal on titration into sCD4 solution” value is “No STD-NMR signal was observed”. For the same compound, in series [2], the inhibition at 1 µg/mL is 8.8% and the inhibition at 5 µg/mL amounted to 26.4%.
For `Nc1ccn([C@H]2CC[C@@H](CO)O2)c(=O)n1` [ddC, 2′,3′-didoxycytidine], the virus replication blocked result in series [3] (10^−6 M ddC, day 3 after infection) is on record as “over 98%”. For the same compound, the inhibition at 1 µM in series [3] (Human immunodeficiency virus 1, NL43, T-cell, read-out: inhibition of infection) is 99%; in series [4] (read-out: virus inhibition, 10^−6 M ddC, after day 3) it was greater than 90%; in series [4] (read-out: virus inhibition, 10^−6 M ddC, day 3), 72%. The same compound yielded a luciferase expression in [3] (ddC control culture, mock-treated 29,601 RLU) of 587 RLU. Further, the “inhibition of luciferase expression” value in [5] is given as 69%. Besides, the “cell viability compared with S. fusiforme-treated cultures” value with 1G5 T cells is reported as “similar”.
Consider `CCCCC/C=C\C/C=C\CCCCCCCC(=O)O` [Linoleic acid, linoleic acid], for which, in series [2], the inhibition at 1 µg/mL was found to be 0% and the inhibition at 5 µg/mL is 0%. Also, the “RT inhibition (in words)” value at recombinant HIV-1 RT is listed as “potent RT inhibitors”.
Consider `CCCCCCCC/C=C\CCCCCCCC(=O)O` [Oleic acid, oleic acid], for which, in [2], the inhibition at 1 µg/mL turned out to be 0% and the inhibition at 5 µg/mL stood at 0%. Moreover, the “RT inhibition (in words)” value at recombinant HIV-1 RT is recorded as “potent RT inhibitors”.
Take `CCCCCCCCCCCCCCCC(=O)O` [^14C-PA]: at ubiquitin, the “binding to ubiquitin (dot blot)” value is reported as “did not bind”. The “binding to sCD4 (dot blot)” value on sCD4 [6] was “dose-dependent”. For the same compound, the “binding to S100A12 (dot blot)” value on S100A12 is given as “did not bind”.
